{"source": "patent US7208572B2", "about": "“Leptin-related peptides” (Albany Medical College, priority 1998, dated 2007)", "key": {"[1]": {"assay": "Epitope mapping: body weight and food intake in female C57BL/6J ob/ob mice, 7 daily ip injections", "type": "in vivo, mouse", "settings": "1 mg/day ip, 7 days", "method": "Animal procedures. Feeding and weighing schedules, as well as peptide administration protocols, are as described in EXAMPLE 8, supra.\nStatistical analysis. Changes in body weight and differences in food intake between peptide-treated and vehicle-injected control mice were analyzed by analysis of variance (ANOVA) and considered significant when P<0.05.\nFemale ob/ob mice (n=6 per group) were given a single ip injection of 0.2 ml of vehicle (PBS, pH 7.2) or leptin-related synthetic peptide amide in 0.2 ml PBS for 7 consecutive days. Daily changes in body weight compared to pretreatment weights in both vehicle-injected control and peptide-treated mice are shown in FIG. 4. […] There was no evidence of weight loss in response to peptide treatment."}, "OB-Rb": {"target": "T1, OB-Rb (Mus musculus, UniProt P48356)", "T1 construct": "full-length leptin receptor (OB-Rb), the receptor isoform predominantly expressed in the hypothalamus; expressed in transfected cells; host or cells: GT1-7", "T1 sequence (P48356 22-1162)": "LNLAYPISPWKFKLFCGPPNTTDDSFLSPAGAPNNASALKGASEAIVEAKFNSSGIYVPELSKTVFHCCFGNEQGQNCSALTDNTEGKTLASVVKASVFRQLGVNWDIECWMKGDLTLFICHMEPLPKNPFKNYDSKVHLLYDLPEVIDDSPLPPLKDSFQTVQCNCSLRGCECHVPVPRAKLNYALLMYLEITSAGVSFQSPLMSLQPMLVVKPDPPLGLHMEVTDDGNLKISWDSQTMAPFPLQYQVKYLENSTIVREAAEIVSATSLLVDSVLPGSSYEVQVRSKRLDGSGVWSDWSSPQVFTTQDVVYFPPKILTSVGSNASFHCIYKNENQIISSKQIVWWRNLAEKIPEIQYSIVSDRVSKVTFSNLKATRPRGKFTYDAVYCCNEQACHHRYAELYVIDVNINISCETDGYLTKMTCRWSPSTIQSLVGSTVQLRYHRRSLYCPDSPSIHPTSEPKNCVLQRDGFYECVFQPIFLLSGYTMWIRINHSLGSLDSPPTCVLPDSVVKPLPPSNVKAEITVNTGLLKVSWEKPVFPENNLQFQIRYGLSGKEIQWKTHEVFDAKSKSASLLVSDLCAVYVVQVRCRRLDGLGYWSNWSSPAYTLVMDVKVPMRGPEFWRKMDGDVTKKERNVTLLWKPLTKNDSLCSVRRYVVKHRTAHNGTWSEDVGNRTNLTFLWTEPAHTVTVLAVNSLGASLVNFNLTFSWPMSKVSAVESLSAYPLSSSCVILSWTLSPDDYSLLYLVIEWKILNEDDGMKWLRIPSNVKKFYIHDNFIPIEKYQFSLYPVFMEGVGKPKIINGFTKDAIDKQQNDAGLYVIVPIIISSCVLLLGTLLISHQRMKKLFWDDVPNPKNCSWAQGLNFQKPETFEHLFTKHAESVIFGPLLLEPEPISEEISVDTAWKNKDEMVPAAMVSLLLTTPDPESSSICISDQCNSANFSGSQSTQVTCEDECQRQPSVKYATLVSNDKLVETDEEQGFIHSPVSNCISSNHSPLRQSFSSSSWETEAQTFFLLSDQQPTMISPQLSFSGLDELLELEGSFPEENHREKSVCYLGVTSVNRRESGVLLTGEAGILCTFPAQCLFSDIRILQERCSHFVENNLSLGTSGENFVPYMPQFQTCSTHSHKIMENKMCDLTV", "assay": "SEAP reporter gene signal transduction assay in GT1–7 cells cotransfected with HRRE-SEAP and OB-Rb", "type": "cell-based", "settings": "peptide 1 to 250 uM, 24 h", "description": "Initial experiments to determine the mechanism of action of LEP(116–130) utilized two highly sensitive in vitro bioassays routinely used to assess leptin binding and receptor activation (see e.g., White, et al., 1997. Proc. Natl. Acad. Sci. U.S.A. 94: 10657–10662). An alkaline phosphatase (“AP”)-leptin (“OB”) fusion protein (“AP-OB”) was used to measure inhibition of leptin binding in the absence or presence of recombinant mouse leptin (positive control) or peptide, by COS-7 cells transfected with the long (signaling) form of the mouse OB receptor (“OB-RL”). Signal transduction assays were done in GT1–7 cells cotransfected with AP reporter and OB-RL constructs. Secreted alkaline phosphatase (“SEAP”) activity in response to stimulation with mouse leptin or peptide was measured by chemiluminescence.\nTwo days after transfection, the cells were stimulated with mouse leptin or leptin-related synthetic peptides for 24 hours. Growth media were harvested and SEAP activity was determined by chemiluminescence as described for AP-OB binding studies.\nCOS-7 and GT1–7 cells were cultured in DMEM supplemented with 10% fetal bovine serum, and transfected by the lipofectamine method. […] Supernatants were collected and SEAP reporter activities were measured by chemiluminescence using the GreatEscApe alkaline phosphatase detection kit as described by the manufacturer (CLONTECH). […]"}}, "data": [{"sequence": "A L S R L Q G S L Q D I L Q Q (ALSRLQGSLQDILQQ) [LEP(146–160)]", "values": [{"measurement": "Cumulative food intake", "setting": "[1]", "result": "40.5 ± 1.0", "unit": "gm/mouse"}, {"measurement": "Percent heavier (+) or lighter (−) than initial weight", "setting": "[1]", "result": "+28.0%"}, {"measurement": "Weight gain (+) or loss (−)", "setting": "[1]", "result": "+6.8 g"}, {"measurement": "Stimulation of SEAP reporter activity", "setting": "OB-Rb", "result": "incapable of inducing an increase in reporter gene activity"}]}]}
